In patent publication US20200384003A1, “TRITERPENOID-CONTAINING PHARMACEUTICAL COMPOSITION AND USE THEREOF” (SHANGHAI LANMU CHEMICALS CO., LTD., priority 2017, published 2020):
Substitutions are numbered along the chain they refer to.

Tests used:
[1] = biological target: T1, mutated lens protein (αB-crystallin R120G) (Homo sapiens, UniProt P02511, R120G); assay: Intracellular mutated lens protein aggregation inhibition experiment in transfected HeLa cells (Example 21); format: cell-based; details: 10 μM, treated 3.5 hours, then 6.5 h normal medium, fewer + = better
T1 construct: expressed in transfected cells; host or cells: HeLa
T1 sequence (P02511 1-175 R120G): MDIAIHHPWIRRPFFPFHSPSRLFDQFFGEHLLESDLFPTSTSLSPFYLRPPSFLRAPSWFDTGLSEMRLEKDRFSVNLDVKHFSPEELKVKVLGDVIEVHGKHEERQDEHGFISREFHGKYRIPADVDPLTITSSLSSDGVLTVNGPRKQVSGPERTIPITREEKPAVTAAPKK
Experimental: In this example, apart of the specific compounds obtained in Example 19 and Example 20 were selected for intracellular mutated lens protein (αB-crystallin R120G) aggregation inhibition experiment (experimental method was described in Chinese patent CN201580057679). The aggregation inhibition activities of compound I and compound II in the present invention on lens protein mutants were evaluated to screen a compound which was effective in treating related disease such as cataract.
The tumor cell line HeLa was selected as a host cell transfected with the mutant lens protein (αB-crystallin […]) expression plasmid, the medium was DMEM with […], and the culture conditions were 37° C., saturated humidity and 5% carbon dioxide cell incubator. Mycoplasma was negative. The transfection process is that the appropriate number of HeLa cells were inoculated on the pre-coated slides. When fully adherent cells grew to about 75% cell density, the expression vector was transfected with liposome. After 4 hours of transfection, the medium was changed to normal medium. Then the HeLa cells were cultured in the cell incubator for 13 hours to induce the expression of exogenous mutant lens protein. After changing the medium, the replaced new medium contained various compounds of the formula I and formula II of the present invention to be tested (DMSO was used as solvent in all mother fluid), wherein the final concentration of each compound was 10 μM, the negative control was 1.5% DMSO solvent, and the positive control was lanosterol (10 μM). The HeLa cells were treated with the medium containing the test compound, 1.5% DMSO solvent and lanosterol for 3.5 hours, respectively, and the normal fresh medium containing no DMSO, test compound or lanosterol was exchanged and the cells were cultured for another 6.5 h, then Anti-p62 antibody and DAPI were used for routine cellular immunofluorescence detection. The field of vision of three positions per slide was randomly selected, the ratio of cells containing aggregated crystalline proteins (lens protein aggregates) was calculated, and the effect of each test compound on intracellular aggregation of mutant lens proteins was finally determined, the results were shown in Table 19.

[2] = Pharmacokinetic study, drug in aqueous humor after eye glass cavity injection (Example 5); format: in vivo; details: SD rats, 5 μl injected into each glass cavity, detected 10 days after the surgery
Experimental: SD rats (about 10 weeks old, male or female) were anesthetized by intraperitoneal injection of pentobarbital sodium and pupil was dilated, then eye glass cavity injection surgery was performed. All animals were injected with the same kind of drugs in both eyes. The amount of drug injected into each glass cavity was 5 μl, and the number of test animals per drug formulation (Example 1, Example 2 and Comparative Example 1) was four, and the drug metabolism in the aqueous humor was detected 10 days after the surgery.

[3] = Heat stability at 80° C. versus 4° C., HPLC and appearance (Example 18); format: physicochemical; details: for content after heat storage / initial experiment purity: HPLC; for initial experiment purity: stored at 4° C.
Experimental: The heatl stabilities of inotodiol and trametenolic acid were tested, and lanosterol was used as a reference at the same time.

[4] = biological target: T2, wild-type αB lens protein aggregate (WT αB) (Homo sapiens, UniProt P02511); assay: Dissolution of lens protein aggregates, ThT fluorescence (Example 22); format: biochemical; details: liposome form, final concentration 125 μM, 24 hours, versus blank liposomes (FIG. 33)
T2 sequence (P02511 1-175): T1 sequence (P02511 1-175 R120G) with G120R
Experimental: The experimental method was as follows: Inotodiol was used as test compound, and its dissolution effect on wild-type αB lens protein aggregate (WT αB) was measured, and lanosterol was used as positive control.
In the present example, the formulations of pharmaceutical composition in the test group and the control group were liposome, wherein the component of the formulation of test group was 40 mg of DPPC, 10 mg of cholesterol and 10 mg of test compound; the component of the formulation of positive control group was 40 mg of DPPC, 10 mg of cholesterol and 10 mg of lanosterol; the component of formulation of the blank control group was 40 mg of DPPC and 10 mg of cholesterol. […]
The analysis of compound concentration in the liposome formulation: The obtained liposome solution was demulsificated with 4 to 5 volumes of methanol solution to afford clear solution. The concentration of compound in the liposome was determined by HPLC method, and the chromatographic conditions are as follows. […] After the comparative analysis, the concentration of corresponding compound in the liposome preparation was determined.
The induction of protein aggregates is as follows. […] After the treatment, ThT fluorescence was used to detect the effect of different compounds on αB lens protein aggregates.

[5] = test system: diabetic metabolite cataract; assay: Therapeutic effect on diabetic metabolite cataract, streptozotocin model (Example 11); format: in vivo, SD rats; details: right eye of diabetic rat, pictures before and after 2 months of treatment (FIG. 25-29)
traumatic cataract = assay: Therapeutic effect of eye ointment on traumatic cataract (Example 10); format: in vivo, SD rats; details: pictures before and after administration (FIG. 22-24, Table 10)
cataract = details: sustained-release lanosterol drug, dogs; cited from earlier work
cataract lens = details: direct administration to the eyeball or lens, primates; cited from earlier work
[6] = 80° C. for 1 week, compared with 4° C.
[7] = 80° C. for 2 weeks, compared with 4° C.

| Compound | Inhibitory effect (percentage of cells containing aggregated proteins) [1] | decrease of drug concentration in aqueous humor compared with initial concentration immediately after injection [2] | appearance after heat storage [3, 6] | appearance after heat storage [3, 7] | content after heat storage ([3]; 80° C. for 1 day) [%] | content after heat storage ([3]; 80° C. for 2 day) [%] | content after heat storage ([3]; 80° C. for 3 day) [%] | initial experiment purity [3] [%] | ThT fluorescence signal of αB lens protein aggregates [4] | turbid area of lens / course of cataract after administration [5] | cortical turbidity area of eyes with traumatic cataract, transparency after administration (traumatic cataract) | cataract treatment effect (cataract) | purity after heat storage ([3]; 80° C. for 2 weeks) [%] | appearance after heat storage ([3]; 80° C. for 1 day) | transparency of cataract lens (cataract lens) |
| --- | --- | --- | --- | --- | --- | --- | --- | --- | --- | --- | --- | --- | --- | --- | --- |
| CC(C)=CCC(O)[C@@H](C)[C@H]1CC[C@@]2(C)C3=C(CC[C@]12C)[C@@]1(C)CC[C@H](O)C(C)(C)C1CC3 (stereo partly drawn) [Inotodiol, inotodiol] | + (<30% of the cells in the field of vision contained protein aggregates) | 11%±2.3% | did not change | began to turn yellow | 88 | 68 | 67 | 94 | significantly reduce the ThT fluorescence signal | – | – | – | – | – | – |
| CC(C)=CCC[C@@H](C)[C@H]1CC[C@@]2(C)C3=C(CC[C@]12C)[C@@]1(C)CC[C@H](O)C(C)(C)[C@@H]1CC3 [lanosterol, reference compound] | +++ (>60% of the cells in the field of vision contain protein aggregates) | 82%±14.7% | one third of the lanosterol turned yellow | All lanosterol turned yellow | 73 | 48 | 44 | 96 | increased the ThT fluorescence signal | increased | could restore transparency of lens with slight turbidity, but no obvious reversal of the disease has been observed in severe cataract | has a cataract treatment effect on dogs only when combined with high-frequency intravitreal injection | 32 | the powder became hard and formed into a large piece | does not restore or improve the transparency of cataract lens in primates |
